In patent US11472846B2, “Compositions and methods for treating diseases by inhibiting exosome release” (priority 2016, dated 2022):

Assays:
Assay type in all cases: cell-based, human
K562 exosomes = experiment: Western blot of exosomal proteins (Alix, vimentin, mortalin), K562; settings: K562 cells, 48 hr treatment
Procedure: (§1) 7-7. Protein analysis by Western blotting. Exosomes were isolated from cell culture supernatants as described above. Protein concentrations were determined by measuring absorbance at 280 nm (Nanodrop 2000). Cultured cells were treated with PEG-SMR-Clu, SMR-CPP peptides, MKT-077, Omeprazole or DMA at 37° C. for 48 hr. To evaluate mortalin, vimentin and exosome expression, Western blot analysis was performed using anti-mortalin (Grp-75), anti-Vimentin and anti-Alix antibodies, respectively (FIG. 12).
(§2) Exosomes and cell lysates were prepared by incubating 5-10 min at 95° C. in sample buffer. The lysates were subjected to SDS-PAGE under reducing conditions (150 mM DTT) in 4-20% Criterion™ TGX™ precast gels (BioRad, Hercules, Calif.) and then transferred onto a nitrocellulose membrane (Bio-Rad, Hercules, Calif.). Nitrocellulose membranes were blocked with 5% skim milk (MedSupply, Atlanta, Ga.) in TBS containing 0.05% Tween 20 (TBST) for 1 h at room temperature. The membranes were treated with anti-mortalin (Grp-75) mAb or anti-α-tubulin mAb for cell lysates (FIG. 15, Panels A and B) or with anti-Alix and anti-vimentin or anti-mortalin for exosomes (FIG. 12), followed by peroxidase-conjugated goat anti-mouse IgG. Bands were developed with an ECL chemiluminescent substrate (Santa Cruz Biotechnology, Santa Cruz, Calif.) and exposed to an ImageQuant LAS 4000 imaging system (GE Healthcare, Piscataway, N.J. 08854).

MCF-7 cells = experiment: Complement-mediated cell cytotoxicity assay (trypan blue), MCF-7; settings: for cell death under complement-positive conditions: 280 nM PEG-SMRwt-Clu or 560 nM SMRwt-CPP 60 min, then anti-CXCR4 antibody and NHS 60 min; for cell death under complement-negative conditions: 280 nM PEG-SMRwt-Clu or 560 nM SMRwt-CPP, 60 min
Procedure: 7-9. Complement-mediated cell cytotoxicity assay. Complement-mediated cell cytotoxicity assays were performed as previously described (Reiter et al., Mol Immunol. (1992) 29(6): p. 771-81). Briefly, MCF-7, MDA-MB-231 and K562 cells were either mock-transfected or transfected with mortalin siRNA. Cells were incubated with 1 μg/ml of anti-CXCR4 antibody for 30 min at 4° C., followed by treatment with PEG-SMRwt-Clu peptide or PEG-SMRmut-Clu peptide or SMRwt-CPP peptide or SMRmut-CPP peptide alone, or treated with SMR peptide combined with complement from normal human serum (NHS) or heat-inactivated normal human serum (NIS) for 60 min at 37° C. Percentage of cells lysed were determined by a trypan blue exclusion assay using the TC10™ Automated Cell Counter (Bio-Rad, Richmond Calif.). (FIG. 14, FIG. 15, Panel D).

[1] = test system: MDA-MB-231 breast cancer cells; experiment: Exosome release by acetylcholinesterase (AchE) assay, MDA-MB-231; settings: for average AChE concentration day 1 to 5: MDA-MB-231 cells, five-day treatment
Procedure: 1-6. Exosome isolation and purification. Exosomes were isolated from breast cancer cells by differential centrifugation as previously described (Ali SA. et al., 2010). Untreated tumor cells were used as a control. Briefly, the above treated and untreated cell culture supernatants were centrifuged at 400×g for 10 minutes. The supernatants were transferred to a clear tube and centrifuged at 10,000×g for 30 minutes. The supernatants from the second spin were ultracentrifuged at 200,000×g for 2 hours to pellet exosomes. Finally, the exosome pellets were re-suspended with PBS and stored at 4° C. until used for analysis.
1-7. Exosome characterization by acetylcholinesterase (AchE) assay. Purified exosomes were quantitated by measurement of AchE as described (Ellman et al., 1961). Briefly, a 100 mM dithibionitrobenzoic (DTNB) solution was prepared for use as a stock color indicator, and a 28.9 mg/mL acetylthiocholine iodide in PBS solution was prepared as a stock substrate. The stock substrate stock can be stored at −20° C. up to one month, while the color indicator can be stored at 4° C. for two weeks. A working solution was prepared by mixing 10 mL of PBS with 200 μL of Substrate and 500 μl of DTNB. 50 μL of each exosome sample was transferred to 96 well microtitre plates, and a standard curve was prepared using AchE from 0.98 mU/mL to 2000 mU/mL. After 50 μL of standards were added into separate wells, 200 μL of the working solution was added to all wells. After 20 min incubation, AchE activity was measured at 450 nm using a SpectroMax M5 fluorimeter.
7-5. Exosome isolation and purification. Exosomes were isolated from breast cancer cells and leukemia cells using the ExoQuick-TC Exosome Precipitation Kit (System Biosciencences [SBI], Mountain View Calif.) or the miRCURY Exosome Isolation Kit (EXIQON, Woburn, Mass.) according to the manufacturer's instructions. Untreated tumor cells were used as a control. Briefly, treated and untreated cell culture supernatants (10 mL) were centrifuged at 3000×g for 15 minutes. The resulting supernatants were transferred to a clear tube, 2 mL of ExoQuick-TC buffer was added, mixed and incubated overnight at 4° C. Following the incubation, the sample contents were centrifuged at 1500×g for 30 minutes, the supernatants were aspirated off, the pellets were centrifuged at 1500×g for 5 minutes and any further traces of supernatant were removed (SBI). Alternatively, treated and untreated cell culture supernatants were centrifuged at 10,000×g for 5 minutes to remove cell debris, supernatants (10 ml) were transferred into new tubes, and 4 mL of precipitation buffer (EXIQON) was added, and the contents were mixed and incubated at 4° C. overnight. Following the incubation, the sample contents were centrifuged at 10,000×g for 30 minutes (EXIQON). Exosome-containing pellets were re-suspended in PBS and stored at 4° C. or −80° C.
7-6. Exosome characterization by acetylcholinesterase (AchE) assay. Purified exosomes were quantitated by measurement of AchE as previously described (Huang et al., Oncotarget, 2017. 8(7): pp. 11302-11315). Briefly, 100 mM dithibionitrobenzoic (DTNB) was prepared as a stock color indicator, and prepared a stock substrate containing 28.9 mg/mL of acetylthiocholine iodide in PBS. Substrate stock can be stored at −20° C. up to one month; the stock color indicator can be stored at 4° C. for two weeks. A working solution was prepared by mixing 10 mL of PBS with 200 μL of substrate and 500 μl of DTNB. 50 μL of each exosome sample was transferred to a 96 well microtitre plate, and a standard curve for AchE concentrations was prepared using AchE from 0.98 mU/mL to 2000 mU/mL. After 50 μL of standards were added into separate wells, 200 μL of the working solution was added to each well. After a 20 min incubation, AchE activity was measured at 450 nm using a SpectroMax M5 fluorometer (FIG. 11).

MDA-MB-231 exosomes = experiment: Western blot of exosomal proteins (Alix, vimentin, mortalin), MDA-MB-231; settings: MDA-MB-231 cells, 48 hr treatment
Procedure: as §1, §2

Sequence	Alix expression in exosomes (K562 exosomes)	Mortalin expression in exosomes (K562 exosomes)	cell death under complement-positive conditions (MCF-7 cells) [%]	cell death under complement-negative conditions (MCF-7 cells) [%]	AchE activity in exosomes ([1]; MDA-MB-231 cells treated 48 hr, control exosomes 118.48 mU/mL) [mU/mL]	average AChE concentration day 1 to 5 [1] [mU/mL]	Alix expression in exosomes (MDA-MB-231 exosomes)	Mortalin expression in exosomes (MDA-MB-231 exosomes)	Vimentin expression in exosomes (MDA-MB-231 exosomes)
NXNVGFPVAAVGFPVHPLSKHPYWSQP (SEQ ID NO: 37) [PEG-SMRwt-Clu]	significantly decreased	significantly decreased	26	2.1	66.77	42	significantly decreased	significantly decreased	significantly decreased
VGFPVAAVGFPVGRKKRRQRRRPPQ [SMRwt-CPP]	significantly decreased	significantly decreased	29	2.1	–	29	significantly decreased	significantly decreased	significantly decreased
